Test results reported in ChEMBL document CHEMBL4184110 (Bioorg Med Chem Lett, 2018).
Values after ≈ are worked out from the molar mass of the structure shown.

Experiments:
Vitamin D3 receptor [1] = biological target: T1, Vitamin D3 receptor (Homo sapiens, UniProt P11473); assay: Antagonist activity at CMV-fused VDR (unknown origin) expressed in HEK293T cells assessed as reduction in 24-hydroxylase promoter mediated transcriptional activity by luciferase reporter gene assay; type: cell-based; conditions: read-out: IC50
T1 sequence (P11473 whole entry): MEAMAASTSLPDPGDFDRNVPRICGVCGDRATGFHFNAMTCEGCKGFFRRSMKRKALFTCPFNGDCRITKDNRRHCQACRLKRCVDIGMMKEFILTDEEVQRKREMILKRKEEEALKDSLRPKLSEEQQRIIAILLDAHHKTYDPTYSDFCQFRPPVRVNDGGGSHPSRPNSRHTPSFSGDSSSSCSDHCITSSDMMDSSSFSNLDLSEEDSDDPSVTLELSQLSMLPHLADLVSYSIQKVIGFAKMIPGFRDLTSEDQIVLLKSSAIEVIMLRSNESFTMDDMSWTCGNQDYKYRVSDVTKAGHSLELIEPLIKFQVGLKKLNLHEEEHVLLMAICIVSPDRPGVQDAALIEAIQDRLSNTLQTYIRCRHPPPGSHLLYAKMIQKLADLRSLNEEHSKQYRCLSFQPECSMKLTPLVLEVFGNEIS

[2] = biological target: T2, Luciferin 4-monooxygenase (Photuris pensylvanica, UniProt Q27757); assay: Inhibition of Photuris pennsylvanica luciferase after 45 mins by CellTiter-Glo based luminescence assay; conditions: 0.75 h
T2 sequence (Q27757 whole entry): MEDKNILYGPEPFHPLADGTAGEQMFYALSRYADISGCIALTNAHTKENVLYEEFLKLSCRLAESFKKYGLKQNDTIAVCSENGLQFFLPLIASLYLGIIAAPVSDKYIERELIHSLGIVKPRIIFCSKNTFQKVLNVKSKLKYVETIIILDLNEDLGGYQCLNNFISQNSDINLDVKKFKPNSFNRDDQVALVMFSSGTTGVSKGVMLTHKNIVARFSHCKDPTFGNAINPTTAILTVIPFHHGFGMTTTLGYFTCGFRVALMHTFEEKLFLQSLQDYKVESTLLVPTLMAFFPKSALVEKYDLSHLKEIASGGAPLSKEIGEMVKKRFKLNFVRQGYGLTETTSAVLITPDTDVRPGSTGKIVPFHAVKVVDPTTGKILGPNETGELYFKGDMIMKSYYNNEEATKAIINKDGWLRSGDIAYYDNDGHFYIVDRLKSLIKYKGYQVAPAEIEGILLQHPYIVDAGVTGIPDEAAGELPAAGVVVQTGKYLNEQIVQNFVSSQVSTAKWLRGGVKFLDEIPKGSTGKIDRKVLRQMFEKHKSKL

Estrogen receptor = biological target: T3, Estrogen receptor (Homo sapiens, UniProt P03372); assay: Antagonist activity at CMV-fused ERalpha-LBD-GAL4-DBD (unknown origin) expressed in HEK293T cells assessed as inhibition of estradiol-induced receptor transactivation after 16 hrs by bright-Glo luciferase reporter gene assay; type: cell-based
T3 sequence (P03372 whole entry): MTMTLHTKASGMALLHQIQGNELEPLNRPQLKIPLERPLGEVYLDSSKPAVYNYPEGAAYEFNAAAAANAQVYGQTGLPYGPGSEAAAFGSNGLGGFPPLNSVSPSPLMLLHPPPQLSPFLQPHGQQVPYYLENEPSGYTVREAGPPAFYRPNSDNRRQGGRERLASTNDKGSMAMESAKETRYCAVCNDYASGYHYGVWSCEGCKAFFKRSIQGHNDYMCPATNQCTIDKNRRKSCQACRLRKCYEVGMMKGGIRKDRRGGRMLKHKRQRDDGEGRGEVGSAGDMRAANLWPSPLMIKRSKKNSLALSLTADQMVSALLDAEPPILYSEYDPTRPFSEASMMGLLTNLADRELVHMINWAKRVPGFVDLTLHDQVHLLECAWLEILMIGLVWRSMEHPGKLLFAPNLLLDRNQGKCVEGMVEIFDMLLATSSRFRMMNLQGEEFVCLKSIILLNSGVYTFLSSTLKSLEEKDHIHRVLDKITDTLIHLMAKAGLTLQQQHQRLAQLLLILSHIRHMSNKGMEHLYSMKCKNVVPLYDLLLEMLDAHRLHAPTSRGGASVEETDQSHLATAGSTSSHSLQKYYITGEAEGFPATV

Vitamin D3 receptor [3] = biological target: T1, Vitamin D3 receptor; assay: Agonist activity at VDR-LBD (unknown origin) assessed as recruitment of alexa fluor 647-labeled SRC2-3 after 30 mins by fluorescence polarization assay
[4] = Aqueous solubility of the compound in DMSO at 500 uM by filter based assay; type: physicochemical
[5] = biological target: T4, Retinoic acid receptor RXR-alpha (Homo sapiens, UniProt P19793); assay: Antagonist activity at CMV-fused RXRalpha-LBD-GAL4-DBD (unknown origin) expressed in HEK293T cells assessed as inhibition of bexarotene-induced receptor transactivation after 16 hrs by bright-Glo luciferase reporter gene assay; type: cell-based
T4 sequence (P19793 whole entry): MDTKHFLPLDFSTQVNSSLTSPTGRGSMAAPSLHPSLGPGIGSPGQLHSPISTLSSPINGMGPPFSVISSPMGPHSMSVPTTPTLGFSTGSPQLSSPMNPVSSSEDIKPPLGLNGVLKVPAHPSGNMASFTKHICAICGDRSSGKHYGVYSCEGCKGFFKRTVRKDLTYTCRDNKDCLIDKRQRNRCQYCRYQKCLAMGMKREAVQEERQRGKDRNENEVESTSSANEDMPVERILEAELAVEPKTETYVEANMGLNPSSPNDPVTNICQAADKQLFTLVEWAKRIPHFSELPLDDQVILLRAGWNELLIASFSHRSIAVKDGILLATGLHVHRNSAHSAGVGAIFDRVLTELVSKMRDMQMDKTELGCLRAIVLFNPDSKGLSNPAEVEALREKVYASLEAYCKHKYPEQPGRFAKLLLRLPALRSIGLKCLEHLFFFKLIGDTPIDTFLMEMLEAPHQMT

[6] = biological target: T5, Thyroid hormone receptor beta (Homo sapiens, UniProt P10828); assay: Antagonist activity at CMV-fused TRbeta-LBD-GAL4-DBD (unknown origin) expressed in HEK293T cells assessed as inhibition of T3-induced receptor transactivation after 16 hrs by bright-Glo luciferase reporter gene assay; type: cell-based
T5 sequence (P10828 whole entry): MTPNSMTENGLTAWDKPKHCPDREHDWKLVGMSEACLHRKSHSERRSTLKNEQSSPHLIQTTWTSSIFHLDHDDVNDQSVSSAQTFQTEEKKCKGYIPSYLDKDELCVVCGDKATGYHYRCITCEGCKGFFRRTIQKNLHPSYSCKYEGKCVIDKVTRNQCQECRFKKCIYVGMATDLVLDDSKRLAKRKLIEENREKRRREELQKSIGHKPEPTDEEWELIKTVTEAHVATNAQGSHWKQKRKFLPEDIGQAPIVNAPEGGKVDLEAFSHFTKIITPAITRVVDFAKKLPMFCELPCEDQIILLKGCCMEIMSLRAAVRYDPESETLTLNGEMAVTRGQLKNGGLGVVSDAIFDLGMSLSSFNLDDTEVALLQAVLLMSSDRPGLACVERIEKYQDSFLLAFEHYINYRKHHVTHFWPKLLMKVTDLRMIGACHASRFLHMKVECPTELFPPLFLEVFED

Vitamin D3 receptor [7] = biological target: T1, Vitamin D3 receptor; assay: Antagonist activity at VP16-fused VDR-LBD (unknown origin) expressed in HEK293T cells assessed as inhibition of ligand-induced GAL4-fused SRC1 coactivator recruitment by two-hybrid luciferase reporter gene assay; type: cell-based

| IC50 (Vitamin D3 receptor [1]) [µM] | inhibition (INH) [2] | IC50 (Estrogen receptor) [µM] | EC50 (Vitamin D3 receptor [3]) | solubility kinetic at 500 µM [4] [µM] | IC50 [5] [µM] | IC50 [6] [µM] | IC50 (Vitamin D3 receptor [7]) [µM] | Structure (SMILES) |
| --- | --- | --- | --- | --- | --- | --- | --- | --- |
| 0.66 | Not Active | 1.7 | Not Active | 45.3 (≈ 16.6 µg/mL) | 2 | 0.97 | 13.9 | COC(=O)Cc1ccc(OCc2oc(-c3cccc(OC)c3)nc2C)cc1 |
| 5.67 | Not Active | 4.7 | Not Active | 18.5 (≈ 6.54 µg/mL) | 4.6 | 8.8 | 8.89 | COC(=O)c1ccc(OCc2oc(-c3cccc(OC)c3)nc2C)cc1 |
| 2.5 |  | 5.2 | Not Active | 44.1 (≈ 15.6 µg/mL) | 11.1 | 9.8 | 7.33 | COC(=O)c1cccc(OCc2oc(-c3ccccc3OC)nc2C)c1 |
| 3.82 |  | 4.1 | Not Active | 61.6 (≈ 22.6 µg/mL) | 4.4 | 7.6 | 11.1 | COC(=O)Cc1ccc(OCc2oc(-c3ccccc3OC)nc2C)cc1 |
